Patent US20230203126A1, “A COMPOSITION COMPRISING S-ARRESTIN PEPTIDES” (WORG PHARMACEUTICALS (HANGZHOU) CO., LTD., priority 2019, published 2023)
Where “and” joins values, the source holds several entries; their conditions need not be identical. Equal entries are not always repeated. No end group written: not given here.

System: S-Ag-induced cell activation (IFNy production of LN cells and splenocytes)
Assay: Ex vivo tolerization experiment (DR3tg mice)
Format: in vivo
Details: for reduction of S-Ag-induced cell activation (IFNy) in spleens: dose escalation to 15 nmol per peptide s.c., cocktail vs single peptide, vs control group, two independent experiments (FIG. 7); for reduction of S-Ag-induced cell activation (IFNy) in lymph nodes / reduction of S-Ag-induced cell activation (IFNy) in spleen: single peptide escalating dose s.c., vs PBS; for reduction of S-Ag-induced cell activation (IFNy) in lymph nodes: 10 days after immunization (FIG. 5A, 6A); for reduction of S-Ag-induced cell activation (IFNy) in spleen: 10 days after immunization (FIG. 5B, 6B)
Description: (§1) FIG. 5: 17JK alone induces tolerance towards S-Ag protein in DR3tg mice. Mice were injected subcutaneously in the flank with 0,1 µg/ml, 1 µg/ml and 10 µg/ml 17JK on days -15, -13 and -11, followed by 3 injections of 100 µg/ml on days -8, -6 and -4 (escalating dose regime). On day 0, mice were immunized subcutaneously at the base of the tail with antigen/CFA. Mice were sacrificed 10 days after immunization to measure activation of LN cells and splenocytes upon S-Ag restimulation. IFNy concentration was measured in the culture supernatant as an indication of cell activation. Data represent mean ± SEM of the concentration of IFNy for the PBS-treated mice (black lines) and 17JK-treated mice (grey lines). Two-way ANOVA was used to measure overall treatment effects on T cell activation. Dunnett’s multiple comparisons test was used and significant differences are indicated in the graphs (** p<0.01; *** p<0.001). The % inhibition of IFNy production as compared to the control group is indicated in the graphs. (A) Tolerization against S-Ag in LN. IFNy production expressed as IFNy concentration (pg/ml). (B) Tolerization against S-Ag in spleen. IFNy production expressed as IFN-y concentration (pg/ml). LN, lymph nodes. Data representative of 3 independent experiments.
as §1, with “FIG. 6: 15N3K alone induces” for “FIG. 5: 17JK alone induces”, “10 µg/ml 15N3K on days” for “10 µg/ml 17JK on days”, “lines) and 15N3K-treated mice (grey” for “lines) and 17JK-treated mice (grey”, “the graphs (* p<0.05; **** p<0.0001). The %” for “the graphs (** p<0.01; *** p<0.001). The %”, “Tolerization against SAg in spleen.” for “Tolerization against S-Ag in spleen.”
FIG. 7: Treatment with peptide cocktail ATX975 reduces S-Ag-induced immune cell activation in DR3tg mice more efficiently than treatment with 17JK or 15N3K alone. Mice were injected subcutaneously in the flank with 0.015 nmol, 0.15 nmol and 1.5 nmol of peptide on days -15, -13 and -11 respectively, followed by 3 injections of 15 nmol peptide on days -8, -6 and -4 (dose escalation schedule). For treatment with the cocktail (ATX975) containing 3 peptides, these doses were given per peptide (reaching a total top dose of 45 nmol peptide). On day 0, mice were immunized subcutaneously at the base of the tail with antigen/CFA. Mice were sacrificed 10 days after immunization to measure activation of splenocytes upon SAg restimulation. Data represent mean ± SEM of the IFNy concentration for the control-treated mice (black lines) and peptide-treated mice (grey lines). Two-way ANOVA was used to measure overall treatment effects on T cell activation. Dunnett’s multiple comparisons test was used and significant differences are indicated in the graphs (* p<0.05; ** p<0.01; *** p<0.001; **** p<0.0001 as compared to the control group; ^# p<0.05, ^#### p<0.0001 as compared to the ATX975 group). The % inhibition of IFNy production as compared to the control group is indicated in the graphs. (A) Tolerization against S-Ag […]. IFN-y production expressed as IFN-y concentration (pg/ml). (B) Tolerization against S-Ag in spleen. […]

Substance: KKKLTFRRDLYFSRVQVYKKK-NH2 [17JK]
- reduction of S-Ag-induced cell activation (IFNy) in spleens: 80% and 52%
- reduction of S-Ag-induced cell activation (IFNy) in lymph nodes: 78%
- reduction of S-Ag-induced cell activation (IFNy) in spleen: 84%

Substance: KKKVIFKKISRDKSVTIYLGKKK-NH2 [15N3K]
- reduction of S-Ag-induced cell activation (IFNy) in spleens: 74%
- reduction of S-Ag-induced cell activation (IFNy) in lymph nodes: 61%
- reduction of S-Ag-induced cell activation (IFNy) in spleen: 72%
